Results on 33 compounds are retold here after patent US7179819B2, “VLA-4 inhibitor compounds” (Daiichi Pharmaceutical Co., Ltd., priority 1999, dated 2007).

Where a name gives a salt, the structure may show the parent alone.

The term melting point denotes the temperature of the solid-liquid transition. As for `COc1cc(CC(=O)N2C[C@@H](N(C)C)C[C@H]2COc2ccc(C(=O)O)cc2)ccc1NC(=O)Nc1ccccc1C`, the melting point is 147 to 150 °C.

For `COc1cc(CC(=O)N2C[C@H](N(C)C)C[C@H]2COc2ccc(C(=O)O)cc2)ccc1NC(=O)Nc1ccccc1Cl`, the melting point fell in the range of 159 to 161 °C.

On to `COc1cc(CC(=O)N2C[C@@H](N(C)C)C[C@H]2COc2ccc(C(=O)O)cc2)ccc1NC(=O)Nc1ccccc1Cl`, for which the melting point lay in the range of 165 to 167 °C.

Regarding `COc1cc(CC(=O)N2CCCC2CN2CCN(CC(=O)O)CC2)ccc1NC(=O)Nc1ccccc1C` (stereo not drawn) (as salt: salt), the melting point was in the range of 160 to 170 °C.

As to `COc1cc(CC(=O)N(C)CCOc2ccc(C(=O)O)cc2C(=O)O)ccc1NC(=O)Nc1ccccc1C` (as salt: salt) [Compound 254, 4-[[2-[3-methoxy-4-[N′-(2-methylphenyl)ureido]phenylacetyl]methylamino]ethoxy]isophthalic acid], the melting point fell in the range of 139 to 141 °C.

`COc1cc(CC(=O)N2CCC[C@H]2CS(=O)(=O)c2cccc(C(=O)O)c2)ccc1NC(=O)Nc1ccccc1C` (stereo in doubt) (as salt: salt) [Compound 21, 3-[[1-[3-methoxy-4-[N′-(2-methylphenyl)ureido]phenylacetyl]-2-pyrrolidinyl]methylsulfonyl]benzoic acid] yielded a melting point of 243 to 245 °C.

In turn, `COc1cc(CC(=O)N2CCC[C@H]2COc2ccc(C(=O)O)cc2F)ccc1NC(=O)Nc1ccccc1C` (stereo in doubt) [Compound 38, 3-fluoro-4-[[1-[3-methoxy-4-[N′-(2-methylphenyl)ureido]phenylacetyl]-2-pyrrolidinyl]methoxy]benzoic acid] came in with a melting point of 123 to 126 °C.

Compound `COc1cc(CC(=O)N2CCC[C@H]2COc2ccc(C(=O)O)cc2OC)ccc1NC(=O)Nc1ccccc1F` (stereo in doubt) [Compound 39, 4-[1-[4-[N′-(2-fluorophenyl)ureido]-3-methoxyphenylacetyl]-2-pyrrolidinyl]methoxy-3-methoxy benzoic acid] came in with a melting point of 140 to 144 °C.

Compound `COc1cc(CC(=O)N2CCC[C@H]2COc2ccc(C(=O)O)cn2)ccc1NC(=O)Nc1ccccc1C` (stereo in doubt) [Compound 40, 2-[[1-[3-methoxy-4-[N′-(2-methylphenyl)ureido]phenylacetyl]-2-pyrrolidinyl]methoxy]pyridine-5-carboxylic acid] had a melting point of 125 to 128 °C.

For the compound `COc1cc(CC(=O)N2CCC[C@H]2COc2ncc(C(=O)O)cc2Cl)ccc1NC(=O)Nc1ccccc1C` (stereo in doubt) [Compound 47, 3-chloro-2-[[1-[3-methoxy-4-[N′-(2-methylphenyl)ureido]phenylacetyl]-2-pyrrolidinyl]methoxy]pyridine-5-carboxylic acid], the melting point is 122 to 125 °C.

Turning to `COc1cc(CC(=O)N2CC(F)(F)C[C@H]2COc2ccc(C(=O)O)cc2)ccc1NC(=O)Nc1ccccc1C` (stereo in doubt) [Compound 139, 4-[4,4-difluoro-1-[3-methoxy-4-[N′-(2-methylphenyl)ureido]phenylacetyl]-2-pyrrolidinylmethoxy]benzoic acid], the melting point lay in the range of 135 to 140 °C.

`COc1cc(CC(=O)N2CC(N)C[C@H]2COc2ccc(C(=O)O)cc2)ccc1NC(=O)Nc1ccccc1C` (stereo in doubt) [Compound 151, 4-[trans-4-amino-1-[3-methoxy-4-[N′-(2-methylphenyl)ureido]phenylacetyl]-(2S)-pyrrolidinyl]methoxybenzoic acid]: the melting point lay in the range of 170 to 171 °C.

In turn, `COc1cc(CC(=O)N2CSC[C@H]2COc2ccc(C(=O)O)cc2)ccc1NC(=O)Nc1ccccc1C` (stereo in doubt) [Compound 168, 4-[3-[3-methoxy-4-[N′-(2-methylphenyl)ureido]phenyl]acetyl-4-thiazolidinyl]methoxybenzoic acid] returned a melting point of 125 to 128 °C.

`COc1cc(CC(=O)N2CSC[C@H]2COc2ccc(C(=O)O)cc2)ccc1NC(=O)Nc1ccccc1Cl` (stereo in doubt) [Compound 169, 4-[3-[4-[N′-(2-chlorophenyl)ureido]-3-methoxyphenylacetyl]-4-thiazolidinyl]methoxybenzoic acid] registered a melting point of 126 to 129 °C.

Compound `COc1cc(CC(=O)N2CSC[C@H]2COc2ccc(C(=O)O)cc2)ccc1NC(=O)Nc1ccccc1Br` (stereo in doubt) [Compound 170, 4-[3-[4-[N′-(2-bromophenyl)ureido]-3-methoxyphenylacetyl]-4-thiazolidinyl]methoxybenzoic acid] displayed a melting point of 125 to 133 °C.

`COc1cc(CC(=O)N2CCC[C@H]2C(=O)NC2CCC(C(=O)O)CC2)ccc1NC(=O)Nc1ccccc1C` (stereo in doubt) [Compound 180, 4-[[1-[3-methoxy-4-[N′-(2-methylphenyl)ureido]phenylacetyl]-2-pyrrolidinyl]carbonylamino]cyclohexanecarboxylic acid] gave a melting point of 136 to 142 °C.

`COc1cc(CC(=O)N2CCC[C@H]2C(=O)NC2CCC(C(=O)O)CC2)ccc1NC(=O)Nc1ccccc1Cl` (stereo in doubt) [Compound 181, 4-[[1-[4-[N′-(2-chlorophenyl)ureido]-3-methoxylphenylacetyl]-2-pyrrolidinyl]carbonylamino]cyclohexanecarboxylic acid] came in with a melting point of 135 to 140 °C.

Regarding `Cc1ccccc1NC(=O)Nc1ccc(CC(=O)N2CCCC2/C=C/c2ccc(C(=O)O)cc2)cc1` (stereo not drawn) [Compound 6, (E)-4-[2-[1-[4-[N′-(2-methylphenyl)ureido]phenylacetyl]-2-pyrrolidinyl]ethenyl]benzoic acid], the melting point fell in the range of 165 to 168 °C.

For `Cc1ccccc1NC(=O)Nc1ccc(CC(=O)N2CCCC2CCc2ccc(C(=O)O)cc2)cc1` (stereo not drawn) [Compound 7, 4-[2-[1-[4-[N′-(2-methylphenyl)ureido]phenylacetyl]-2-pyrrolindinyl]ethyl]benzoic acid], the melting point was 180 to 190 °C.

With `COc1cc(CC(=O)N2CCCC2C#Cc2ccc(C(=O)O)cc2)ccc1NC(=O)Nc1ccccc1` (stereo not drawn) [Compound 13, 4-[2-[1-[3-methoxy4-(N′-phenylureido)phenylacetyl]-2-pyrrolidinyl]ethynyl]benzoic acid], the melting point is 154 to 157 °C.

The compound `COc1cc(CC(=O)N2CCCC2C#Cc2ccc(C(=O)O)cc2)ccc1NC(=O)Nc1ccccc1C` (stereo not drawn) [Compound 14, 4-[2-[1-[3-methoxy-4-[N′-(2-methylphenyl)ureido]phenylacetyl]-2-pyrrolidinyl]ethynyl]benzoic acid] displayed a melting point of 161 to 164 °C.

`COc1cc(CC(=O)N2CCC[C@H]2COc2ccc(C(=O)O)cc2OC)ccc1NC(=O)Nc1ccccc1C` [Compound 27] returned a melting point of 132 to 135 °C.

With `COc1cc(CC(=O)N2CCCC2C#Cc2ccc(C(=O)O)cc2)ccc1NC(=O)Nc1ccccc1F` (stereo not drawn) [Compound 33, 4-[2-[1-[4-[N′-(2-fluorophenyl)ureido)-3-methoxyphenylacetyl]-2-pyrrolidinyl]ethynyl]benzoic acid], the melting point was 152 to 155 °C (dec.).

Take `COc1cc(C(=O)O)ccc1OCc1csc(Cc2ccc(NC(=O)Nc3ccccc3C)cc2)n1` [Compound 41, 3-methoxy-4-[2-[4-[N′-(2-methylphenyl)ureido]benzyl]4-thiazolyl]methoxybenzoic acid]: the melting point is 243 to 245 °C.

For the compound `COc1cc(CC(=O)N2CCC[C@H]2COc2ccc(C(=O)O)cc2)ccc1NC(=O)Nc1ccccc1Br` [Compound 59, 4-[1-[4-[N′-(2-bromophenyl)ureido]-3-methoxylphenylacetyl]-(2S)-pyrrolidinyl]methoxybenzoic acid], the melting point was in the range of 120 to 125 °C.

In turn, `O=C(Nc1ccccc1)Nc1ccc(CC(=O)N2C[C@@H](F)C[C@H]2COc2ccc(C(=O)O)cc2)cc1` [Compound 72, 4-[(4S)-fluoro-1-[4-(N′-phenylureido)phenylacetyl]-(2S)-pyrrolidinylmethoxy]benzoic acid] showed a melting point of 169 to 171 °C.

`Cc1cc(CC(=O)N2C[C@@H](F)C[C@H]2COc2ccc(C(=O)O)cc2)ccc1NC(=O)Nc1ccccc1` [Compound 73, 4-[(4S)-fluoro-1-[3-methyl-4-(N′-phenylureido)phenylacetyl]-(2S)-pyrrolidinylmethoxy]benzoic acid]: the melting point was 130 to 135 °C.

For the compound `Cc1cc(CC(=O)N2C[C@@H](F)C[C@H]2COc2ccc(C(=O)O)cc2)ccc1NC(=O)Nc1ccccc1F` [Compound 74, 4-[(4S)-fluoro-1-[4-[N′-(2-fluorophenyl)ureido]-3-methylphenylacetyl]-(2S)-pyrrolidinylmethoxy]benzoic acid], the melting point lay in the range of 137 to 143 °C.

With `O=C(Nc1ccc(CC(=O)N2C[C@@H](F)C[C@H]2COc2ccc(C(=O)O)cc2)cc1)Nc1ccccc1C(F)(F)F` [Compound 75, 4-[(4S)-fluoro-1-[4-[N′-(2-trifluoromethylphenyl)ureido]phenylacetyl]-(2S)-pyrrolidinylmethoxy]benzoic acid], the melting point lay in the range of 130 to 135 °C.

In the case of `COc1cc(CC(=O)N2C[C@@H](F)C[C@H]2COc2ccc(C(=O)O)cc2)ccc1NC(=O)Nc1ccccc1C(F)(F)F` [Compound 76, 4-[(4S)-fluoro-1-[3-methoxy-4-[N′-(2-trifluoromethylphenyl)ureido]phenylacetyl]-(2S)-pyrrolidinylmethoxy]benzoic acid], the melting point was 129 to 132 °C.

As for `Cc1cc(CC(=O)N2C[C@@H](F)C[C@H]2COc2ccc(C(=O)O)cc2)ccc1NC(=O)Nc1ccccc1C(F)(F)F` [Compound 77, 4-[(4S)-fluoro-1-[3-methyl-4-[N′-(2-trifluoromethylphenyl)ureido]phenylacetyl]-(2S)-pyrrolidinylmethoxy]benzoic acid], the melting point lay in the range of 123 to 126 °C.

With `Cc1cc(CC(=O)N2CCC[C@H]2COc2ccc(C(=O)O)cc2)ccc1NC(=O)Nc1ccccc1Cl` [Compound 81, 4-[1-[4-[N′-(2-chlorophenyl)ureido]-3-methylphenylacetyl]-(2S)-pyrrolidinyl]methoxybenzoic acid], the melting point fell in the range of 122 to 124 °C.

On to `Cc1cc(CC(=O)N2CCC[C@H]2COc2ccc(C(=O)O)cc2)ccc1NC(=O)Nc1ccccc1Br` [Compound 82, 4-[1-[4-[N′-(2-bromophenyl)ureido]-3-methylphenylacetyl]-(2S)-pyrrolidinyl]methoxybenzoic acid], for which the melting point fell in the range of 125 to 130 °C.
